The target in data set [1] is T1, streptavidin (Streptomyces avidinii, UniProt P22629). Kind of data set: Sequencing of clones enriched after three rounds of selection of library L1-CCA against streptavidin. The conditions noted are these: clones sequenced after three rounds of selection against streptavidin. The method, then: Streptavidin-coated magnetic Dynabeads™ (50 μL/ selection, prewashed with 1 mL PBS) were blocked with 3% (w/v) mPBS (1 mL) for 1 h on a rotary mixer at room temperature and 20 RPM. L1 phage particles (~ 10^11) were reduced with DTT (1 mM) for 30 min at 37 °C in PBS (total reaction volume = 100 µL). The beads were pelleted on a magnetic stand and reduced L1 phage particles (~ 10^11) were added. After 1 h on a rotary mixer at room temperature and 20 RPM, the beads were pelleted and the supernatant was transferred to a fresh Eppendorf. Linker CCA (final concentration = 150 µM) in DMSO (5% total volume) was added and the reaction was left to incubate for 2 h at room temperature.
T1 sequence (P22629 25-183): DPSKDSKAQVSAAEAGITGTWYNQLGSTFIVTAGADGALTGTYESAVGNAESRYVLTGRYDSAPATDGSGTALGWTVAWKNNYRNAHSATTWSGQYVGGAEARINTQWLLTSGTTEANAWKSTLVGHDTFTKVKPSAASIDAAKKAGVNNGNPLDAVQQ
L1-CCA: Output phage from the negative streptavidin selection above.
L1-Red/ L1-CCA input phage (~ 10^11) and streptavidin-coated magnetic Dynabeads™ (50 μL/ selection, prewashed with 1 mL PBS) were incubated with 3% (w/v) mPBS (volume made up to 500 μL for phage, 1 mL for beads) for 1 h on a rotary mixer at room temperature and 20 RPM. The beads were pelleted on a magnetic stand and resuspended in 3% (w/v) mPBS (100 μL). An aliquot of the blocked beads (50 μL) was added to the blocked phage. The mixture was incubated for 1 h on a rotary mixer at room temperature and 20 RPM.
Using a Kingfisher mL apparatus, the beads were washed x5 with PBST (1 mL) and eluted into trypsin solution (10 µg/ mL trypsin in 0.1 M pH 7.0 sodium phosphate buffer, 200 µL). Trypsin digest was performed for 30 min at 37 °C and 600 RPM, the beads were pelleted and the supernatant was added to OD600nm = 0.6 TG1 E. coli (800 µL). After 1 h at 37 °C and 250 RPM, output titres were performed and the remaining cells were plated O/N on a 2xTYAG bioassay plate at 37 °C. The next day, the cells were harvested from the plate, as described below.

Data set [2] concerns the target T1, streptavidin. Description: Streptavidin-binding phage ELISA. The conditions noted are these: for Phage ELISA signal, Linear: Figure 6a, peptide linear (reduced using DTT), bound phage detected with anti-M13-HRP; for Phage ELISA signal, Linear / Phage ELISA signal, Lin: phage clone; for Phage ELISA signal, Lin: Figure 6b, peptide linear; for Binding to streptavidin in phage ELISA (in words): phage-displayed peptide, form as stated in the sentence (CCA replaced with linkers 1, 2, 3 or 4; CCA-cyclized negative control). As to the method:
All incubation steps were performed at room temperature unless otherwise stated. A Pierce™ streptavidin-coated 96 well plate (Thermo Fisher Scientific) was treated O/N at 4 °C with biotinylated antigen (50 µL/well, 10 ng/µL in assay buffer). The next day, the plate was washed x3 with PBS to remove unbound antigen and incubated for 1 h with blocking buffer (300 µL/ well). At the same time, phage cultures (100 µL, ~ 10^10) were incubated for 1 h with blocking buffer (400 µL).
The 96-well plate was washed x3 with PBS and subsequently incubated with blocked phage (50 µL/ well) for 1 h. The plate was washed x3 with PBST, and bound phage was detected via the addition of anti-M13 HRP conjugated secondary antibody (50 µL/ well, 1/5000 dilution in blocking buffer, Abcam). After 1 h, the plate was washed x3 with PBST. HRP was developed using TMB substrate (50 µL/ well, Thermo Fisher Scientific), quenched after 5 min with H2SO4 (50 µL/ well, 0.5 M) and visualised at λ = […] using an EnVision Microplate Reader (PerkinElmer). Data was processed using SoftMax® Pro Software v7. […]
Biotinylated antigen = none required, assay buffer = N/A, blocking buffer = 3% (w/v) mPBS.
Background: An ELISA detects its analyte on a solid surface through an enzyme-linked reagent.

Data set [3] deals with T1, streptavidin. Kind of data set: SPR binding of synthetic peptides to immobilised streptavidin (Biacore 8K). The conditions noted are these: synthetic peptide as disulphide-bonded entity, 25 °C, 4.1-9000 nM, HBS-EP+ pH 7.4. The method, then: The affinity of peptides Str1 and Str1-CCA to streptavidin was measured using the Biacore 8 K (GE Healthcare) at 25 °C.
For cyclization, peptide Str1 (5 mg, GL Biochem) was dissolved in PBS (20 mL) and treated with DTT (1.2 eq.) for 1 h at RT then linker CCA (2 eq.) for 3 h at RT. The reaction was purified by RP-HPLC and characterised by LC-MS to confirm the correct identity of the cyclized product, Str1-CCA. Str1 = 1351 Da and Str1-CCA = 1601 Da.
Streptavidin was covalently immobilised to a CM5 chip surface (Cytiva, BR100530, lot 10340325) using standard amine coupling techniques at a concentration of 16 µg/ml in 10 mM sodium acetate pH 4.5.
The peptides were serially diluted (4.1 – 9000 nM) in HBS-EP + buffer pH 7.4 and flowed over the chip at 30 µL/min, with 180 s association and 600 s dissociation. Multiple buffer-only injections were made under the same conditions to allow for double reference subtraction of the final sensorgram sets, which were analysed using Biacore 8 K Evaluation Software. Each experiment was repeated three times, which gave consistent results. Representative results are presented in the paper.
(In general: Surface plasmon resonance follows binding to a sensor surface in real time, without labels.)

The test system of a further data set is Ph1 phage particles. Kind of data set: Phage infectivity studies (titre of infective phage after linker treatment). The conditions noted are these: Figure 4d; phage treated with DTT (1 mM) only. As to the method: CCA: Ph1 phage particles (~ 10^11) were reduced with DTT (1 mM) for 30 min at 37 °C in a total volume of 95 µL. Linker CCA (final concentration = 150 µM) in DMSO (5% total volume) was added and the reaction was left to incubate for 2 h at room temperature. DBX: Ph1 phage particles (~ 10^11) were reduced with TCEP (1 mM) for 30 min at 37 °C in a total volume of 95 µL. Reduced Ph1 phage particles were buffer exchanged into NH4HCO3 (20 mM, pH 8.0) using Zeba™ Spin Desalting Columns (7 K MWCO, 0.5 mL) following the manufacturer’s instructions. Linker DBX (final concentration = 150 µM) in DMSO (5% total volume) was added and the reaction was left to incubate for 2 h at room temperature.
For each sample, two 100-fold dilutions in 2xTY were prepared. An aliquot (10 μL) of the 10^−4 dilution sample was added to TG1 E. coli (990 µL) grown to OD600nm = 0.6. After 1 h of infection at 37 °C and 150 RPM, four further 10-fold dilutions in 2xTY were prepared (10^−7 – 10^−10). Aliquots (100 µL) of dilution samples 10^−7 – 10^−10 were plated O/N on 2xTYAG agar at 37 °C. The next day, phage titres were calculated according to the equation.
Cfu/mL = [No. of colonies] x [Dilution factor] x [1/Volume plated (mL)].

Positions of bridges follow the written chain, without caps; N, C: chain ends. No end group written: not given here.

As to “CPFNILVPFIDC [Str4, phage clone displaying streptavidin-selected peptide]”, the “Abundance (Total = 96)” value on streptavidin [1] stood at 5. For the same compound, the “Phage ELISA signal, Linear” value on streptavidin [2] was determined as 0.254.

Turning to “CPFNIKNPDDGC [Str2, phage clone displaying streptavidin-selected peptide]”, at streptavidin [1], the “Abundance (Total = 96)” value amounted to 7. In addition, the “Phage ELISA signal, Linear” value at streptavidin [2] came to 0.111.

Regarding “CPFNFFIWNDEC [Str9, phage clone displaying streptavidin-selected peptide]”, the “Abundance (Total = 96)” value at streptavidin [1] is 2. For the same compound, on streptavidin [2], the “Phage ELISA signal, Linear” value stood at 0.315.

On to “CPINIFHPPPDC (disulfide 1-12 (inferred)) [Str1, streptavidin-selected peptide; tested as phage clone and as synthetic disulphide-bonded peptide]”, for which the “SPR signal (in words)” value at streptavidin [3] was “no SPR signal observed”. At streptavidin [1], the “Abundance (Total = 96)” value is 42. In addition, the “Phage ELISA signal, Linear” value at streptavidin [2] is reported as 0.115.

With “CPYNIAGPPLYC [Str3, phage clone displaying streptavidin-selected peptide]”, at streptavidin [1], the “Abundance (Total = 96)” value worked out at 13. Further, the “Phage ELISA signal, Linear” value on streptavidin [2] is given as 0.123.

As for “CPFNIASPFYGC [Str6, phage clone displaying streptavidin-selected peptide]”, the “Abundance (Total = 96)” value at streptavidin [1] is recorded as 12. Also, on streptavidin [2], the “Phage ELISA signal, Linear” value was found to be 0.254.

Consider CPTNTQYDLTIC, for which, at streptavidin [1], the “Abundance (Total = 96)” value stood at 4.

Consider “CPYNVERPDSHC [Str8, phage clone displaying streptavidin-selected peptide]”, for which the “Abundance (Total = 96)” value at streptavidin [1] was 2. In addition, on streptavidin [2], the “Phage ELISA signal, Linear” value is 0.029.

As for “CPINVQYSTGTC [Str7, phage clone displaying streptavidin-selected peptide]”, the “Abundance (Total = 96)” value at streptavidin [1] is on record as 1. In addition, on streptavidin [2], the “Phage ELISA signal, Linear” value amounted to 0.032; the “Phage ELISA signal, Lin” value came out at 0.106; the “Binding to streptavidin in phage ELISA (in words)” value is recorded as “no binding”.

For CWLNHPQAPPEC [reference compound], on streptavidin [2], the “Phage ELISA signal, Linear” value is 1.437.

In the case of “CPYNIINPTFDC [Str5, phage clone displaying streptavidin-selected peptide]”, at streptavidin [1], the “Abundance (Total = 96)” value is reported as 8. In addition, at streptavidin [2], the “Phage ELISA signal, Linear” value turned out to be 0.096.

In the data set with Ph1 phage particles, `O[C@@H](CS)[C@@H](O)CS` [DTT, reference compound] registered a Phage titre of 1.30E+11 Cfu/mL.

Turning to “CGGSGGC [negative control phage construct, reference compound]”, at streptavidin [2], the “Phage ELISA signal, Linear” value amounted to 0.052; the “Phage ELISA signal, Lin” value is listed as 0.065; the “Binding to streptavidin in phage ELISA (in words)” value is reported as “No binding”.

These data come from PMC11344848, “Proximity-driven site-specific cyclization of phage-displayed peptides” (Nature Communications, 2024).
